From patent US11400038B2, “Synergistic antioxidant compositions” (RODAN & FIELDS, LLC, priority 2019, dated 2022) come the findings set out here.

The subject of data set [1] is Adult human fibroblasts. As to the kind of experiment: Phototoxicity (PHTX): cell viability pre- and post-UVA irradiation by MTT assay (Test Method B). The following applies: for cell metabolism versus solvent control, in words: UV-irradiation assay, individual antioxidants; for PHTX Results: phototoxicity: individual antioxidant. It is filed as cell-based. Here is the method: The cell viability was measured by determining the cells metabolic activity with a MTT assay according to Test Method B, the results are presented in Table 5. An MTT assay is a colorimetric assay for assessing cell metabolic activity.
Adult human fibroblasts were grown to exponential stage in a 96-well plate in DMEM and 10% FBS in humidified atmosphere, 37° C. in 5% CO2. Prior to irradiation, half of cell culture medium was replaced with PBS, treated with 0.1% test material (diluted in double distilled water), and incubated for an additional 1 hour 45 minutes. Following incubation, half of the plate was irradiated with UVA lamp UVA-28T at 5 mW/cm2 for 12 minutes, and the other half remained covered with aluminum foil. Following irradiation, PBS with test materials was replaced by fresh cell culture medium and plate was incubated for an additional 24 hours. Cell viability was then analyzed via MTT assay to quantify metabolic activity.

Data set [2] relates to UVA-induced Reactive Oxygen Species in Human Dermal Fibroblasts. The experiment in a line: DCFH reactive oxygen species quantification in UVA-irradiated fibroblasts (Test Method C). As to conditions: individual antioxidant, + pro-oxidant. The class given is cell-based. As for the experimental part:
Compositions of Ex1-Ex8 have been tested for reactive oxygen species quantification in UVA-irradiated human dermal fibroblasts. The quantification result is expressed as a percentage of the water control and determined by the Test Method C and resented in Table 6.
Adult human fibroblasts were grown in a 96 well plate in DMEM+5% FBS. At exponential growth stage, medium was replaced with PBS and cells were loaded with 10 μM DCFH-DA (2′-7′-Dichlorofluorescin diacetate). Cells were incubated for 15 minutes at 37° C., rinsed, and incubated with test materials at 1 mg/ml (0.1% w/w) for an additional 20 minutes. Following incubation, plate was irradiated at 5 mW/cm2 for 10 minutes. Measurements of DCF-originated fluorescence were taken before and after irradiation as, in the presence of free radicals, DCFH is oxidized to highly fluorescent DCF, which can be detected in living cells at ex/em 488/530 nm. Total insoluble proteins were quantified to determine effect of test materials on cell number and to standardize ROS signal to cell number using the following equation: [ΔROS signal (t10 min−t0)]\[cell number (background−corrected)]. Water was used as a negative control.

Molecules are shown by their SMILES.

As to `C[C@@H]1O[C@@H](OC[C@H]2O[C@@H](Oc3c(-c4ccc(O)c(O)c4)oc4cc(O)cc(O)c4c3=O)[C@H](O)[C@@H](O)[C@@H]2O)[C@H](O)[C@H](O)[C@H]1O` [Rutin, 2-(3,4-dihydroxyphenyl)-5,7-dihydroxy-3-[α-L-rhamnopyranosyl-(1→6)-β-D-glucopyranosyloxy]-4H-chromen-4-one], in data set [1], the “cell metabolism versus solvent control, in words” value was “lower cell metabolism than solvent control” and the “PHTX Results: phototoxicity” value is “not phototoxic”. Besides, in data set [2], the “DCFH Results (intracellular antioxidant): radical activity” value is recorded as “No Activity”.
Turning to `O=C(/C=C/c1ccc(O)c(O)c1)O[C@H](Cc1ccc(O)c(O)c1)C(=O)O` [Rosmarinic acid, (2R)-3-(3,4-dihydroxyphenyl)-2-{[(2E)-3-(3,4-dihydroxyphenyl)prop-2-enoyl]oxy}propanoic acid], in data set [1], the “cell metabolism versus solvent control, in words” value is “lower cell metabolism than solvent control” and the “PHTX Results: phototoxicity” value was “not phototoxic”. In addition, the “DCFH Results (intracellular antioxidant): radical activity” value in data set [2] is on record as −52% radical.
